Measurements as given in patent US9598441B2, “Therapeutic compounds and methods” (Wayne State University, priority 2011, dated 2017).

How the values were obtained:
Format in all cases: cell-based, human
[1] = tested on: MDA-MB-468 wild-type, vector and CARP-1 (Δ896-978) expressing cells; assay: MTT assay in stable HBC sublines expressing vector or CARP-1 (Δ896-978); conditions: for growth of wild-type, vector and CARP-1 (Δ896-978) expressing cells (MTT): 0.1 and 1.0 μg/ml ADR, or 5 and 10 μM CFM-4; for sensitivity of CARP-1 (Δ896-978) expressing cells to inhibition: versus wild-type or vector cells
Text: Routine maintenance and culture of MDA-MB-231, MDA-MB-468, SKBR-3 (all lack ER and have mutant p53), MCF-7, T47D (both have ER and wild-type p53) HBC cells (Runnebaum, I. B., Nagarajan, M., Bowman, M., Soto, D., and Sukumar, S. (1991). Proc. Natl. Acad. Sci. USA 88, 10657-10661), human prostate cancer PC3 and LnCAP cells, HCT-116 human colon cancer, human pancreatic cancer PANC-1 and BxPC-3, Burkett lymphoma Raji, diffuse large B-cell lymphoma WSU-DLCL2, follicular lymphoma WSU-FSCCL cells, cervical cancer HeLa, human mesothelial Met5a, human pleural malignant mesothelioma (MPM), murine MPM AB12 cells (Wang, Y., Rishi, A. K., Puliyappadamba, V. T., Sharma, S., Yang, H., Tarca, A., Dou, Q. P., Lonardo, F., Ruckdeschel, J. C., Pass, H. I., Wali, A. (2010) Can. Chemother. Pharmacol. 66, 455-466), and the green monkey kidney Cos-7 cells was carried out essentially as described (Rishi, A. K., Zhang, L., Boyanapalli, M., Wali, A., Mohammad, R. M., Yu, Y., Fontana, J. A., Hatfield, J. S., Dawson, M. I., Majumdar, A. P. N., and Reichert, U. (2003) J. Biol. Chem. 278, 33422-33435, Rishi, A. K., Zhang, L., Yu, Y., Jiang, Y., Nautiyal, J., Wali, A., Fontana, J. A., Levi, E., and Majumdar, A. P. N. (2006) J. Biol. Chem. 281(19), 13188-98, Zhang, L., Levi, E., Majumder, P., Yu, Y., Aboukameel, A., Du, J., Xu, H., Mohammad, R. M., Hatfield, J. S., Wali, A., Adsay, V., Majumdar, A. P. N., and Rishi, A. K. (2007) Mol. Cancer Ther. 6(5), 1661-1672, Levi, L., Zhang, L., Aboukameel, A., Rishi, S., Mohammad, R. M., Polin, L., Hatfield, J. S., and Rishi, A. K. Can. Chemother. Pharmacol. (in Press). The immortalized, non-tumorigenic human breast epithelial MCF-10A have been described before (Miller, F. R. (2000). J. Mammary Gland Biol. Neoplasia 5, 379-391). MCF-7 cells that are resistant to adriamycin (MCF-7/Adr/Vp) or tamoxifen (MCF-7-TAM) were obtained from Drs. Douglas Ross (University of Maryland Baltimore) and Kaladhar Reddy (Pathology Department, Wayne State University, Detroit, Mich.), respectively, and were maintained essentially following methods described before (Doyle, L. A., Yang, W., Abruzzo, L. V., Krogmann, T., Gao, Y., Rishi, A. K., and Ross, D. D. (1998). Proc. Natl. Acad. Sci. (USA), 95, 15665-15670, Nabha, S., Glaros, S., Hong, M., Lykkesfeidt, A. E., Schiff, R., Osborne, C. K., Reddy, K. B. (2005). Oncogene, 24, 3166-3176). The stable sublines were generated by transfecting the MDA-MB-468 cells with the vector or the recombinant pcDNA3/CARP-1 (Δ896-978)-myc-His plasmid followed by selection in the presence of 800 μg/ml neomycin using described methods (Rishi, A. K., Zhang, L., Boyanapalli, M., Wali, A., Mohammad, R M, Yu, Y., Fontana, J. A., Hatfield, J. S., Dawson, M. I., Majumdar, A. P. N., and Reichert, U. (2003) J. Biol. Chem. 278, 33422-33435).
Logarithmically growing cells were either untreated or treated with different agents for various time periods. The cells were lysed to prepare protein extracts. IP was carried out by incubating approximately 1 mg of the protein lysate with appropriate antibodies, and the immunoprecipitates or cell lysates were then electrophoresed on 9-12% SDS-polyacrylamide gels, and transferred to nitrocellulose membranes. The membranes were subsequently probed with various antibodies to determine expression/presence of the corresponding proteins. The cell growth inhibition was assessed by using MTT assay. […]

[2] = tested on: immortalized, non-tumorigenic mammary epithelial MCF-10A cells; assay: MTT cell viability assay, non-tumorigenic cells
Protocol: Logarithmically growing cells were either untreated or treated with different agents for various time periods. The cells were lysed to prepare protein extracts. IP was carried out by incubating approximately 1 mg of the protein lysate with appropriate antibodies, and the immunoprecipitates or cell lysates were then electrophoresed on 9-12% SDS-polyacrylamide gels, and transferred to nitrocellulose membranes. The membranes were subsequently probed with various antibodies to determine expression/presence of the corresponding proteins. The cell growth inhibition was assessed by using MTT assay. Briefly, MTT (3-[4,5-Dimethylthiazol-2-yl]-2,5diphenyltetrazolium bromide) was dissolved in sterile 1×PBS to prepare a stock solution of 5 mg/ml. […] The assessment of the live cells was derived by measuring the absorbance of the converted dye at wavelength of 570 nm.
(§1) To test whether CFMs that interfere with CARP-1 binding with APC-2 modulate cell growth, HBC, colon, prostate, pancreatic cancer, MPM and lymphoma cells, as well as the immortalized, mammary epithelial MCF-10A cells were utilized. The cells were either treated with vehicle (DMSO) or various doses of the respective compound for a period of 72 h, and percent of live/viable cells for each compound was determined relative to the untreated controls as described in Methods.

[3] = tested on: HBC, colon, prostate, pancreatic cancer, MPM and lymphoma cells; assay: MTT cell viability assay, cancer cells
Protocol: Logarithmically growing cells were either untreated or treated with different agents for various time periods. The cells were lysed to prepare protein extracts. IP was carried out by incubating approximately 1 mg of the protein lysate with appropriate antibodies, and the immunoprecipitates or cell lysates were then electrophoresed on 9-12% SDS-polyacrylamide gels, and transferred to nitrocellulose membranes. The membranes were subsequently probed with various antibodies to determine expression/presence of the corresponding proteins. The cell growth inhibition was assessed by using MTT assay. Briefly, MTT (3-[4,5-Dimethylthiazol-2-yl]-2,5diphenyltetrazolium bromide) was dissolved in sterile 1×PBS to prepare a stock solution of 5 mg/ml. The solution was subsequently filtered through 0.2 μm filter and stored at 2-8° C. 4−5×10^2 cells were seeded in 96-well plates. After 72 h incubation with or without different agents, MTT stock solution was added to each culture being assayed to equal one tenth the original culture volume, followed by incubation of cells at 37° C. for another 2 h. At the end of the incubation, the media was removed and cells were treated with 100-200 μl of DMSO to solubilize the dye. The assessment of the live cells was derived by measuring the absorbance of the converted dye at wavelength of 570 nm.
as §1

Structure (SMILES): COc1cccc2c1C(=O)c1c(O)c3c(c(O)c1C2=O)C[C@@](O)(C(=O)CO)C[C@@H]3O[C@H]1C[C@H](N)[C@H](O)[C@H](C)O1 [ADR, adriamycin, reference compound]
- growth of wild-type, vector and CARP-1 (Δ896-978) expressing cells (MTT) [1]: suppressed growth
- sensitivity of CARP-1 (Δ896-978) expressing cells to inhibition [1]: generally more sensitive

Structure (SMILES): O=C1N(Cc2ccccc2Cl)c2ccccc2C12NN=C(c1ccccc1)S2 (stereo not shown) [CFM-4, 1-(2-chlorobenzyl)-5′-phenyl-3′H-spiro[indoline-3,2′-[1,3,4]thiadiazol]-2-one]
- loss of viability of CARP-1 (Δ896-978) cells versus wild-type or vector-transfected cells ([1]; 10 μM dose): greater loss of viability
- growth of wild-type, vector and CARP-1 (Δ896-978) expressing cells (MTT) [1]: suppressed growth
- sensitivity of CARP-1 (Δ896-978) expressing cells to inhibition [1]: generally more sensitive
- growth of MCF-10A cells (MTT) [2]: failed to attenuate growth
- sensitivity of HBC cells compared with similar dose of CFM-1 and 5 (MTT) ([3]; HBC cells, 20 μM dose): relative increased sensitivity
- HBC cell growth / viability (MTT) ([3]; HBC cells, 72 h): suppressed viabilities

Structure (SMILES): Cc1cc(Br)cc2c1NC(=O)/C2=C1\SC(=S)NC1=O [CFM-1, (Z)-5-(5-bromo-7-methyl-2-oxoindolin-3-ylidene)-2-thioxothiazolidin-4-one]
- HBC cell growth / viability (MTT) ([3]; HBC cells, 72 h): suppressed viabilities
- cell growth of MPM cells (MTT) ([3]; MPM cells, 72 h): elicited activity towards select MPM cells
